According to PMC9821961, “Ring-Modified Histidine-Containing Cationic Short Peptides Exhibit Anticryptococcal Activity by Cellular Disruption” (Molecules, 2022):
In brackets after ≈: the same amount, converted by molar mass. Where two headings read alike, the source gives them in different places.

Tests used:
C. albicans = test: microbe, parasite or virus in culture; format: cell-based, Candida albicans
Text: (§1) Microbial strains: Microbial strains were procured from National Culture Collection of Pathogenic Fungi (NCCPF) at the Postgraduate Institute of Medical Education & Research (PGIMER), Chandigarh and Microbial Type Culture Collection and Gene bank (MTCC) at the Institute of Microbial Technology (IMTECH), Chandigarh, India. Peptides were screened against five different strains of fungi: viz. Candida albicans (NCCPF400034), Candida glabrata (MTCC 3019), Candida parapsilosis (NCCPF 440002), Candida krusei (NCCPF 440002) and Cryptococcus neoformans (NCCPF250316), and five strains of bacteria: viz. Escherichia coli (MTCC 2961), Staphylococcus aureus (MTCC 3160), Enterococcus faecalis (MTCC 439), Streptococcus pyogenes (MTCC 442) and Pseudomonas aeruginosa (MTCC 3542).
(§2) Growth media: Antifungal susceptibility testing was carried out using standard broth microdilution assays as per the Clinical and Laboratory Standards Institute (CLSI) guidelines for fungi. RPMI 1640 (Sigma), yeast extract, peptone and dextrose (YPED, Himedia) were used as the incubation broths. The cells were diluted to a cell density of 10^3 colony forming unit (CFU/mL) and incubated at 30 °C for 48 h. Furthermore, Muller Hinton (Himedia) media was utilized for bacterial strains and antibacterial activity was evaluated per CLSI guidelines for bacteria. Bacterial cells were diluted to a cell density of 10^5 CFU/mL and incubated at 37 °C for 24 h. Amphotericin B (Himedia, India) and rifampicin (Himedia, India) were used as standard drugs for the evaluation of activity against all the fungal and bacterial strains, respectively.
(§3) The stock solutions of peptides (2 mg/mL) were prepared in DMSO. Specific amounts of peptide from stock solution were added to a 96-well microtiter plate containing 100 μL of growth media and then serially diluted two-fold. A further 100 μL of growth media containing microbial cells were added to each well and incubated at 30–37 °C for 24–48 h. The optical density (OD) was measured at 600 nm using a BioStack Ready (BioTek Instruments, Winooski, VT, USA) microplate reader to analyze microbial growth inhibition, and IC50 and MIC values were calculated. To visualize the growth and inhibition pattern, a solution of 3-(4,5-dimethylthiazol-2-yl)-2,5-diphenyltetrazolium bromide (MTT) in water was added to the plate and incubated for 2–3 h. MTT reacts with the mitochondrial dehydrogenases, which are present only in a viable cell, to give blue colored formazan crystals. Therefore, a darker color indicates a high number of viable cells; however, non-viable cells appear pale or colorless.

C. parapsilosis = test: microbe, parasite or virus in culture; format: cell-based, Candida parapsilosis
Text: as §1, §2, §3

C. neoformans cells [1] = test: CLSM FITC-labeled peptide uptake assay; format: cell-based, Cryptococcus neoformans; conditions: FITC-tagged peptide, 12 h
Method: After incubation, cells were harvested by centrifugation at 2000× g for 10 min at 4 °C and suspended in PBS and mounted on a slide for visualization under a confocal microscope with excitation and emission wavelengths of 488 nm and 515 nm, respectively.

C. krusei = test: microbe, parasite or virus in culture; format: cell-based, Candida krusei
Text: as §1, §2, §3

C. glabrata = test: microbe, parasite or virus in culture; format: cell-based, Candida glabrata
Text: as §1, §2, §3

C. neoformans = test: microbe, parasite or virus in culture; format: cell-based, Cryptococcus neoformans
Text: as §1, §2, §3

Cryptococcal cells [2] = system: Cryptococcal cells
C. neoformans cells [3] = test: Time kill assay; conditions: time-kill profile over 24 h
Cryptococcal cells [4] = test: microbe, parasite or virus in culture; conditions: Cryptococcus neoformans, read-out: MIC Alone

## COC(=O)[C@H](Cc1ncn(Cc2ccc([N+](=O)[O-])cc2)c1I)NC(=O)[C@@H](N)Cc1c[nH]c2ccccc12 [10h]
C. albicans; 48 h
  IC50: >35.2 µg/mL
  MIC: >64.0 µg/mL
C. parapsilosis; 48 h
  IC50: >35.2 µg/mL
  MIC: >64.0 µg/mL
C. neoformans cells [1]
  Fluorescence of cells incubated with FITC-labeled peptide (CLSM): did not show any fluorescence
C. krusei; 48 h
  IC50: >35.2 µg/mL
  MIC: >64.0 µg/mL
C. glabrata; 48 h
  IC50: >35.2 µg/mL
  MIC: >64.0 µg/mL
C. neoformans; 48 h
  MIC: >64.0 µg/mL

## C[C@@H]1[C@H](O)[C@@H](C)/C=C/C=C/C=C/C=C/C=C/C=C/C=C/[C@H](O[C@@H]2O[C@H](C)[C@@H](O)[C@H](N)[C@@H]2O)C[C@@H]2O[C@](O)(C[C@@H](O)C[C@@H](O)[C@H](O)CC[C@@H](O)C[C@@H](O)CC(=O)O[C@H]1C)C[C@H](O)[C@H]2C(=O)O [Amphotericin B, reference compound]
Cryptococcal cells [2]; combination 10o + Amp B
  Effect: Synergistic
  FICI: 0.31
  Fold Decrease in MIC: 4
  MIC In Combination: 0.250 µg/mL
Cryptococcal cells [2]; combination 10d + Amp B
  Effect: Synergistic
  FICI: 0.18
  Fold Decrease in MIC: 8
  MIC In Combination: 0.125 µg/mL
C. albicans; Candida albicans, C. albicans, read-out: IC50
  IC50: 0.36 µg/mL (≈ 0.39 µM)
C. albicans; Candida albicans, C. albicans, read-out: MIC
  MIC: 0.72 µg/mL (≈ 0.779 µM)
C. parapsilosis; Lodderomyces parapsilosis, C. parapsilosis, read-out: IC50
  IC50: 0.36 µg/mL (≈ 0.39 µM)
C. parapsilosis; Lodderomyces parapsilosis, C. parapsilosis, read-out: MIC
  MIC: 0.72 µg/mL (≈ 0.779 µM)
C. krusei; Pichia kudriavzevii, C. krusei, read-out: IC50
  IC50: 0.36 µg/mL (≈ 0.39 µM)
C. krusei; Pichia kudriavzevii, C. krusei, read-out: MIC
  MIC: 0.72 µg/mL (≈ 0.779 µM)
C. glabrata; Nakaseomyces glabratus, C. glabrata, read-out: IC50
  IC50: 0.18 µg/mL (≈ 0.195 µM)
C. glabrata; Nakaseomyces glabratus, C. glabrata, read-out: MIC
  MIC: 0.36 µg/mL (≈ 0.39 µM)
C. neoformans cells [3]
  Time after which growth/CFUs of cryptococcal cells dropped or were inhibited: 4 h
Cryptococcal cells [4]
  MIC: 1 µg/mL (≈ 1.08 µM)
C. neoformans; Cryptococcus neoformans, C. neoformans, concentration that leads to ~50% inhibition of growth, read-out: IC50
  IC50: 0.5 µg/mL (≈ 0.541 µM)
C. neoformans; Cryptococcus neoformans, C. neoformans, lowest test concentration with no detectable growth, read-out: MIC
  MIC: 1 µg/mL (≈ 1.08 µM)

## OC(Cn1cncn1)(Cn1cncn1)c1ccc(F)cc1F [Flu, fluconazole]
Cryptococcal cells [2]; combination 10o + Flu
  Effect: Additive
  FICI: 1.00
  Fold Decrease in MIC: 2
  MIC In Combination: 5.0 µg/mL
Cryptococcal cells [2]; combination 10d + Flu
  Effect: Synergistic
  FICI: 0.19
  Fold Decrease in MIC: 16
  MIC In Combination: 0.625 µg/mL
Cryptococcal cells [2]; combination 10d + Flu, listed as fluconazole
  Fold Decrease in MIC: approx. 16
Cryptococcal cells [2]; cryptococcal cells, agent alone
  MIC Alone: 10.0 µg/mL (≈ 32.7 µM)
Cryptococcal cells [4]
  MIC: 10 µg/mL (≈ 32.7 µM)
